Reference: US20180224430A1, “Method of Estimating the Incidence of In Vivo Reactions to Chemical or Biological Agents Using In Vitro Experiments” (Coyne Scientific, LLC, priority 2015, published 2018)

How the values were obtained:
[1] = system: cardiomyocytes derived from stem cells (differentiated induced pluripotent stem cells); assay: In vitro assay with Endpoint A (causally associated with cardiomyopathy) on stem-cell-derived cardiomyocytes from 100 donors; assay type: cell-based, human
Method: An in vitro assay is then identified whose endpoint—referred to herein as Endpoint A—includes one that is causally associated with one of the cardiotoxic effects of doxorubicin: cardiomyopathy. Concentrations of doxorubicin as prescribed by the in vitro assay's protocol are prepared in a concentration that corresponds to doses of 500 mg and 600 mg administered in vivo.
In vitro tests are conducted at these concentrations on a representative sample of cardiomyocytes derived from stem cells (the cardiomyocytes are differentiated induced pluripotent stem cells) originating from a sample of 100 donors, and then the donors are arrayed in order of ascending scores on Endpoint A.
The “Reaction Threshold Prediction Model” is selected as the mathematical transform in their procedure. It is noted from the doxorubicin clinical cardiotoxicity data mentioned above that 12% of the clinical trial participants experienced cardiomyopathy when treated at the 500 mg dose level. Using the in vitro test results above, the Endpoint A score is determined that is associated with the 88th Percentile member of the in vitro cohort of 100 donors (88 representing 100% minus the 12% of the sample in vivo who experienced cardiomyopathy following treatment with a 500 mg dose). The Endpoint A score reads 70 units.
Next, the in vitro assay of doxorubicin is repeated, with a concentration corresponding to a 600 mg dose administered in vivo, on a representative sample of cardiomyocytes derived from stem cells originating from a sample of 100 donors, and then the donors are arrayed in order of ascending scores on Endpoint A. This time, the Endpoint A score is detected for the donor at the 76th Percentile (76 representing 100% minus the […] of the sample in vivo who experienced cardiomyopathy following treatment with a 600 mg dose). This time, the Endpoint A score reads 65 units. […]

[2] = cited from earlier work

## COc1cccc2c1C(=O)c1c(O)c3c(c(O)c1C2=O)C[C@@](O)(C(=O)CO)C[C@@H]3O[C@H]1C[C@H](N)[C@H](O)[C@H](C)O1 [doxorubicin]
[1]; concentration corresponding to 500 mg dose, 88th percentile member of 100 donors
  Endpoint A score: 70 units
[1]; concentration corresponding to 600 mg dose, donor at 76th percentile of 100 donors
  Endpoint A score: 65 units
[1]; leads to incidences of cardiomyopathy in the range of 10 to 25 percent
  Endpoint A score approximating threshold of impact (presumed toxicity threshold): 65-70
[2]; 500 mg dose level
  clinical trial participants who experienced cardiomyopathy: 12%
[2]; 600 mg dose
  sample in vivo who experienced cardiomyopathy: 23%
